In patent EP0423133B1, “ENZYMATIC RESOLUTION SYSTEMS AND COMPOUNDS USEFUL IN THE SYSTEMS AND THEIR REPARATIONS” (priority 1988, dated 1989):
Values after ≈ are worked out from the molar mass of the structure shown. Where a name gives a salt, the structure may show the parent alone. Read-outs that look alike come from different tables or passages of the source.

What was measured:
Protease XXIII = assay: Homogeneous aqueous enzymatic resolution (ester hydrolysis) with enzyme A; format: biochemical, Aspergillus oryzae; conditions: for enantiomeric excess: pH 7.5, 100 mg Protease XXIII (A)
Description: The enzymes used in Examples 6.2.1.1-6.2.1.17, 6.2.1.20-6.2.1.21, 6.2.1.23-6.2.1.28, 6.2.2.7, and 6.2.3.1-6.2.3.5 that follow were all proteases commercially available from Sigma Chemical Co., St. Louis, MO. […] For examples 6.2.2.5-6.2.2.6, Candida lipase obtained from Genzyme Corporation was used.
No further purification was performed.
The aqueous layer was retained.

[1] = biological target: T1, Protease VIII: "Subtilopeptidase A" (Bacillus licheniformis, UniProt P00780); assay: Homogeneous aqueous enzymatic resolution (ester hydrolysis) with enzyme B; format: biochemical; conditions: for % e.e.: acid product
T1 sequence (P00780 106-379): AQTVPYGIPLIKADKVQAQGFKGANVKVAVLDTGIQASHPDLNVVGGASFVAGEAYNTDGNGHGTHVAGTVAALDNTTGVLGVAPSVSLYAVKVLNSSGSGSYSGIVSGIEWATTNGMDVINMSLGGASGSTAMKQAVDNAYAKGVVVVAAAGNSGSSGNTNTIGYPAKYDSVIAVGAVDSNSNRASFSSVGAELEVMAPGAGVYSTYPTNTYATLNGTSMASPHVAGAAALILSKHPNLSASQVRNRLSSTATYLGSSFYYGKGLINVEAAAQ

[2] = biological target: T2, Protease XXVII: "Nagarse" (Bacillus amyloliquefaciens, UniProt P00782); assay: Homogeneous aqueous enzymatic resolution (ester hydrolysis) with enzyme D; format: biochemical; conditions: 0.010 mol ester in 100 ml 0.2 M sodium phosphate buffer pH 7.8, 150 mg enzyme D
T2 sequence (P00782 108-382): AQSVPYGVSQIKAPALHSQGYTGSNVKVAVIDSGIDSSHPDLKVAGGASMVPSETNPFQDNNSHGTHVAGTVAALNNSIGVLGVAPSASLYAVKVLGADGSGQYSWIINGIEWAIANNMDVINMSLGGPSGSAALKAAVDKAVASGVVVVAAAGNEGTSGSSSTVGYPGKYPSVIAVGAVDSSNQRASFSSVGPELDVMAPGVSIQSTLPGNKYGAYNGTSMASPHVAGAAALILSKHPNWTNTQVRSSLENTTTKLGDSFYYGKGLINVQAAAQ
Excerpt: (§1) The enzymes used in Examples 6.2.1.1-6.2.1.17, 6.2.1.20-6.2.1.21, 6.2.1.23-6.2.1.28, 6.2.2.7, and 6.2.3.1-6.2.3.5 that follow were all proteases commercially available from Sigma Chemical Co., St. Louis, MO. These proteases are listed in each example using the Sigma numbering system, which is summarized below: • Protease VIII: "Subtilopeptidase A", product P-5380 (also known as subtilisin Carlsberg) • Protease XIV: from Streptomyces griseus, product P-5147 • Protease XVI: from Bacillus subtilis, product P-8775 • Protease XXIII: from Aspergillus oryzae, product P-4032 • Protease XXVII: "Nagarse", product P-4789 • Protease XXIV: bacterial protease, product P-8038 An additional protease enzyme, which was designated Prozyme 6, was obtained from the Amano Enzyme Corporation and used in Examples 6.2.1.18-6.2.19, 6.2.1.22, 6.2.1.29-6.2.1.30 and 6.2.2.1-6.2.2.4 described below. A pig liver esterase was used in Example 6.21.11; this enzyme, obtained from Sigma Chemical Company, was designated as their product E-3128. For examples 6.2.2.5-6.2.2.6, Candida lipase obtained from Genzyme Corporation was used. Finally, Candida lipase, product L-1754, obtained from Sigma Chemical Co. was used in Example 6.2.2.7.

[3] = Solubility by absorbance of saturated solutions at 262 nm; format: physicochemical
Protease XVI = assay: Homogeneous aqueous enzymatic resolution (ester hydrolysis) with enzyme C; format: biochemical, Bacillus subtilis; conditions: 10.0 mmol ester in 100 ml 0.2 M phosphate buffer pH 7.0, 100 mg enzyme C, 20-22 °C, 20 hours; for % e.e.: acid product, R
Excerpt: as §1

Prozyme 6 = assay: Homogeneous aqueous enzymatic resolution (ester hydrolysis) with enzyme F; format: biochemical, Aspergillus oryzae; conditions: for % CONVERSION / % e.e.: 10 mmol ester in 100 ml 0.2 M buffer pH 7.0, 100 mg Prozyme 6 (F), 25 °C, 18 hours; for % e.e.: acid product, R
[4] = tested on: Candida lipase (Genzyme Corporation); assay: Asymmetric hydrolysis in a multiphase membrane bioreactor with enzyme G; format: biochemical, Candida cylindracea; conditions: neat liquid ester, pH 7.7
Excerpt: The module was then drained.
This material was recrystallized from hexane.

[5] = tested on: Candida lipase (Sigma L 1754); assay: Asymmetric hydrolysis in a multiphase membrane bioreactor with enzyme H; conditions: for rate of ester hydrolysis: pH 7.0
Description: The enzyme solution was recirculated from the shell side to the lumen side and back to the solution reservoir in an ultra-filtration mode. […] The procedure was completed in one hour.
After loading the enzyme to the reactor, recirculation of 210 gm. […] The recirculation rate was 400 ml/min and the average pressure on the shell compartment was kept at 45,5 KPa (6.5 psi) by adjusting a throttling valve at the shell side exit. On the lumen side 1 liter of 0.05 M K2 PO4 was recirculated at a rate of 400 ml/min. The pH of the aqueous reservoir was kept at 7.0 by addition of 1 M NaOH. The reactor was run continuously for 6.8 days.
The reaction progress and rate were monitored by following the caustic consumption.

[6] = 10.0 mmol ester in 100 ml 0.2 M phosphate buffer pH 7.0, 100 mg enzyme A, 20-22 °C, 20 hours
[7] = acid product, R, 10.0 mmol ester in 100 ml 0.2 M phosphate buffer pH 7.0, 100 mg enzyme A, 20-22 °C, 20 hours
[8] = aqueous buffer, saturated solutions, pH 7 (50 mM phosphate buffer), room temperature, read-out: Solubility
[9] = water, as stated in the text of the examples, read-out: water solubility

CC(C)Cc1ccc(C(C)C(=O)OCCS(=O)(=O)O)cc1 (racemic) [Compound 2, Sodium Salt of 2-Sulfoethyl Ester of 2-(4-Isobutylphenyl) propanoic Acid]
% CONVERSION (Protease XXIII; [6]): 22.3% | % e.e. (Protease XXIII; [7]): 93.3%

CC(C)Cc1ccc(C(C)C(=O)OCCCS(=O)(=O)O)cc1 (racemic) [Compound 3, Potassium Salt of 3-Sulfopropyl Ester of 2-(4-Isobutylphenyl) propanoic Acid]
% CONVERSION (Protease XXIII; [6]): 50.0% | % CONVERSION (Protease XXIII; 0.010 mol ester in 100 ml 0.2 M sodium phosphate buffer pH 7.8, 150 mg enzyme A): 47.1% | conversion of the racemic ester to acid (Protease XXIII; about 1 M ester, 40 ml, 0.1 M potassium phosphate pH 7.0, 1.00 gm protease (A), 23.9 hours at room temperature, by hydroxide titration): 29% | % e.e. (Protease XXIII; [7]): 84.2% | % e.e. (Protease XXIII; acid product, R, 0.010 mol ester in 100 ml 0.2 M sodium phosphate buffer pH 7.8, 150 mg enzyme A): 97.7% | % CONVERSION ([1]; 0.010 mol ester in 100 ml 0.2 M sodium phosphate buffer pH 7.8, 150 mg enzyme B): 36.4% | % e.e. ([1]; R, 0.010 mol ester in 100 ml 0.2 M sodium phosphate buffer pH 7.8, 150 mg enzyme B): 98.6% | % CONVERSION [2]: 32.0% | % e.e. ([2]; acid product, R): 91.0%

CC(C)Cc1ccc(C(C)C(=O)OCCCCS(=O)(=O)O)cc1 (racemic) [Compound 4, Potassium Salt of 4-Sulfobutyl Ester of 2-(4-Isobutylphenyl) propanoic Acid]
solubility [3, 8]: 1130 mM | % CONVERSION (Protease XXIII; [6]): 43.2% | % e.e. (Protease XXIII; [7]): 97.4% | % CONVERSION ([1]; 10.0 mmol ester in 100 ml 0.2 M phosphate buffer pH 7.0, 100 mg enzyme B, 20-22 °C, 20 hours): 20.0% | % e.e. ([1]; R, 10.0 mmol ester in 100 ml 0.2 M phosphate buffer pH 7.0, 100 mg enzyme B, 20-22 °C, 20 hours): 92.1% | % CONVERSION (Protease XVI): 22.0% | % e.e. (Protease XVI): 61.7%

CC(C)Cc1ccc(C(C)C(=O)OCCOP(=O)(O)O)cc1 (racemic) [Compound 5, Disodium Salt of the Phosphoric Acid Ester of the 2-Hydroxyethyl Ester of 2-(4-Isobutylphenyl) propanoic Acid]
% CONVERSION (Protease XVI): 5.3% | % e.e. (Protease XVI): 75.6%

CC(C)Cc1ccc(C(C)C(=O)OCCCOS(=O)(=O)O)cc1 (racemic) [Compound 6, Potassium Salt of the Sulfuric Acid Ester of 3-Hydroxypropyl Ester of 2-(4-Isobutylphenyl) propanoic Acid]
% CONVERSION (Protease XXIII; [6]): 24.3% | % e.e. (Protease XXIII; [7]): 96.5%

COc1ccc2cc(C(C)C(=O)OCS(=O)(=O)O)ccc2c1 (racemic) [Compound 9, Sodium Salt of Sulfomethyl Ester of 2-(6-Methoxy-2-naphthyl) propanoic Acid]
conversion (enzymatic hydrolysis) (Protease XXIII; 2.0 gm ester in 400 ml 50 mM sodium phosphate buffer pH 7.5, 100 mg Protease XXIII (A), 25 degrees, 16 hours): 18% | enantiomeric excess (Protease XXIII; R isomer of naproxen, acid product, 16 hours): 61.2% | enantiomeric excess (Protease XXIII; S isomer of Naproxen from chemical hydrolysis (pH 12) of the unconverted ester, 16 hours): 45.5%

CC(C)Cc1ccc(C(C)C(=O)OCC[N+](C)(C)C)cc1 (racemic) [Compound 10, Iodide Salt of 2-(N,N,N-Trimethylammonium)ethyl Ester of 2-(4-Isobutylphenyl) propanoic Acid]
solubility [3, 8]: 2180 mM | % CONVERSION (Protease XXIII; [6]): 30.1% | % e.e. (Protease XXIII; [7]): >99%

COc1ccc2cc(C(C)C(=O)OCC[N+](C)(C)C)ccc2c1 (racemic) [Compound 11, Methyl Sulfate Salt of 2-(N,N,N-Trimethylammonium) ethyl Ester of 2-(6-Methoxy-2-naphthyl)propanoic Acid]
% CONVERSION (Prozyme 6): 24.3% | % e.e. (Prozyme 6): 34.0%

COc1ccc2cc(C(C)C(=O)OCCC[N+](C)(C)C)ccc2c1 (racemic) [Compound 12, Methyl Sulfate Salt of 3-(N,N,N-Trimethylammonium) propyl Ester of 2-(6-Methoxy-2-naphthyl)propanoic Acid]
solubility [3, 8]: 1610 mM | % CONVERSION (Prozyme 6): 34.0% | % e.e. (Prozyme 6): 21.6%

CC(Cl)C(=O)OCCCS(=O)(=O)O (racemic) [Compound 13, Potassium Salt of 3-Sulfopropyl Ester of 2-Chloropropanoic Acid]
conversion as measured by titrimetry ([1]; 8.05 gm ester in 300 ml 0.1 M potassium phosphate buffer pH 7.0, 20 mg subtilisin protease (B), point at which the reaction was stopped): 25%

CC(CSC(=O)c1ccccc1)C(=O)OCS(=O)(=O)O (racemic) [Compound 16, Potassium Salt of the Sulfomethyl Ester of (±)-S-3-Benzoylthio-2-methylpropanoic Acid]
% CONVERSION (Protease XXIII; 10.0 mmol ester in 100 ml 0.2 M buffer pH 7.0, 100 mg enzyme A, 25 °C, 18 hours): 53% | % e.e. (Protease XXIII; acid product, S, 10.0 mmol ester in 100 ml 0.2 M buffer pH 7.0, 100 mg enzyme A, 25 °C, 18 hours): 3% | % CONVERSION ([1]; 10.0 mmol ester in 100 ml 0.2 M buffer pH 7.0, 100 mg enzyme B, 25 °C, 18 hours): 26% | % e.e. ([1]; S, 10.0 mmol ester in 100 ml 0.2 M buffer pH 7.0, 100 mg enzyme B, 25 °C, 18 hours): 10%

CC(Oc1ccc(Cl)cc1)C(=O)OCS(=O)(=O)O (racemic) [Compound 17, Sodium Salt of the Sulfomethyl Ester of 2-(4-Chlorophenoxy) propanoic Acid]
completion of reaction (Prozyme 6; 10 mmol ester in 100 ml 0.2 M sodium phosphate buffer pH 7.0, 35 mg Enzyme F, 30 °C, 1 hour): 22.5%

CC(C)Cc1ccc(C(C)C(=O)OCC(F)(F)F)cc1 (racemic) [Compound 19, 2,2,2-Trifluoroethyl Ester of 2-(4-Isobutylphenyl)propanoic Acid]
solubility [3, 8]: 0.4 mM (≈ 115 µg/mL) | solubility [3, 9]: ~0.4 mM (≈ 115 µg/mL) | average hydrolytic rate ([4]; first 60 minutes, 3.0 grams Candida lipase in membrane): 160 amol/min | average hydrolysis rate ([4]; over the next 76 hours, by titrimetry): 21 µmol/min | conversion to acid ([4]; over the next 76 hours): about 9.8%

CCCCCCCCOC(=O)C(C)Cl (racemic) [Compound 20, Octyl Ester of 2-Chloropropanoic Acid]
solubility [3, 8]: 1.2 mM (≈ 265 µg/mL) | solubility [3, 9]: ~1.2 mM (≈ 265 µg/mL) | rate of ester hydrolysis ([5]; at the beginning of the experiment, 210 gm neat ester, 30 grams Candida lipase in membrane): 186 µmol/min | rate of ester hydrolysis ([5]; at the end of the experiment (6.8 days)): 25 µmol/min | initial ester hydrolyzed ([5]; when the experiment was terminated (6.8 days)): 41%

CC(C)Cc1ccc(C(C)C(=O)OCCN(C)C)cc1 (stereo not drawn) [2-(N,N-dimethylamino)ethyl ester of ibuprofen]
solubility [3, 8]: 10 mM (≈ 2770 µg/mL)

COCCOC(=O)C(C)c1ccc(CC(C)C)cc1 (stereo not drawn) [Methoxyethyl ester of ibuprofen]
solubility [3, 8]: 0.18 mM (≈ 47.6 µg/mL)
